Counter-ions that a name gives are not always drawn. Like-named read-outs stand apart in the source and are kept apart here. Bridge positions count the residues as written; N and C are the ends. Ends that are not written are not given here. Peptide text beside a SMILES is read from it.
How the values were obtained:
[1] = system: C. albicans ATCC 64124; test: microbe, parasite or virus in culture; conditions: for Activity in gels with 1.0% denture adhesive compared with gels without / Minimal inhibitory concentration (MIC): C. albicans ATCC 64124; for Activity in gels with 1.0% denture adhesive compared with gels without: result in words, Tukey HSD, 0.05 level; for MIC: Candida albicans
Protocol: (§1) C. albicans strains ATCC 64124 and HMV4C were used and cultivated as previously described. Their identities were verified (State Hygienic Laboratory, University of Iowa Research Park, Coralville, IA, USA). These cultures were adjusted to contain 1.2–3.7 × 10^6 CFU/mL in Roswell Park Memorial Institute (RPMI) 1640 medium.
(§2) The denture adhesive used was a standard, over-the-counter gel containing poly sodium-calcium mixed partial salt, petrolatum, cellulose gum, and mineral oil and was prepared as previously described. Denture adhesive was too viscous to use directly and was diluted to 1.0% for incorporation into the radial diffusion assay.
(§3) Each agent was reconstituted in distilled water with 0.01% acetic acid for resuspension to keep the agent in solution. Two-fold dilutions were prepared.
(§4) The radial diffusion assays were performed as described with the following unique modifications. Underlay agarose gels were prepared with and without 1.0% denture adhesive in square petri dishes (Electron Microscopy Sciences, Hatfield, PA, USA). Plates without 1.0% adhesive contained 12.5 mL of 10.0 mM sodium phosphate buffer adjusted to pH 7.4, 12.5 mL of 2.0% agarose (Agarose LE, Roche Diagnostics Corporation, Indianapolis, IN, USA) in 10.0 mM sodium phosphate adjusted to pH 7.4, and 1.0 mL of C. albicans culture per plate. Plates with 1.0% adhesive contained 12.5 mL of 2.0% dental adhesive in 10.0 mM sodium phosphate adjusted to pH 7.4, 12.5 mL 2.0% agarose (Agarose LE, Roche Diagnostics Corporation, Indianapolis, IN, USA) in 10.0 mM sodium phosphate adjusted to pH 7.4, and 1.0 mL of C. albicans culture. Wells of 2.0 mm in diameter were created and filled with 5.0 µL of AMP or antifungal antibiotic dilution (n = three replications per test). A blank of 0.01% acetic acid in distilled water was also included. The plates were incubated at 37 °C for 3 h. After incubation, 10.0 mL of overlay containing 1.0% agarose in 10.0 mM phosphate buffer with 6.0% RPMI 1640, was added to each plate. The plates were incubated at 37 °C overnight. At 24 h, antimicrobial activity was determined by measuring the zone of clearance around the center of each well and extrapolating MIC as described.
(§5) When MICs fell outside the range of the assay, we considered the MIC to be equal to the highest concentration used in the assay. […] One-way fixed-effects ANOVA models were fit to the µM MIC values. Pairwise group comparisons were conducted using the method of Tukey’s Honest Significant Differences (HSD). A 0.05 level was used to determine statistically significant differences. All analyses were conducted using JMP (Version 10.0, SAS, Cary, NC, USA).

[2] = system: C. albicans HMV4C; test: microbe, parasite or virus in culture; conditions: for Activity in gels with 1.0% denture adhesive compared with gels without / Minimal inhibitory concentration (MIC): C. albicans HMV4C; for Activity in gels with 1.0% denture adhesive compared with gels without: result in words, Tukey HSD, 0.05 level; for MIC: Candida albicans, HMV4C
Protocol: as §1, §2, §3, §4, §5

[3] = system: Candida albicans; conditions: broth microdilution, p < 0.05; cited from earlier work
Source text: Candida species infections can cause complications for individuals with dentures, such as denture stomatitis.

[4] = Adhesive (1.0% denture adhesive in gel), radial diffusion, mean (standard error, n = 3)
[5] = No Adhesive, radial diffusion, mean (standard error, n = 3)
[6] = in both gels with or without 1.0% denture adhesive
[7] = Adhesive (1.0% denture adhesive in gel), radial diffusion, pH 7.4, 37 °C, read at 24 h, mean (standard error, n = 3)

Molecule	Activity in gels with 1.0% denture adhesive compared with gels without ([1]; radial diffusion)	Activity in gels with 1.0% denture adhesive compared with gels without ([2]; radial diffusion)	Loss of antimicrobial activity in 1.0% denture adhesive [3]	Minimal inhibitory concentration (MIC) [1, 6]	Minimal inhibitory concentration (MIC) [2, 5]	further results
GIINTLQKYYCRVRGGRCAVLSCLPKEEQIGKCSTRGRKCCRRKK (disulfide 11-40, 18-33, 23-41 (inferred)) [HBD-3]	diminished activity	diminished activity				
[H]/N=C(\N/C(=N/[H])NCCCCCCNC(=N)NC(=N)Nc1ccc(Cl)cc1)Nc1ccc(Cl)cc1 [Chlorhexidine dihydrochloride]	same	same	did not			MIC ([1]; ATCC64124, 24 h, pH 7.4, read-out: Minimal inhibitory concentration (MIC), C. albicans ATCC 64124, Adhesive (1.0% denture adhesive in gel), radial diffusion, pH 7.4, 37 °C, read at 24 h, mean (standard error, n = 3)): 4.6 µg/mL; MIC ([1]; ATCC64124, 24 h, pH 7.4, read-out: Minimal inhibitory concentration (MIC), C. albicans ATCC 64124, No Adhesive, radial diffusion, pH 7.4, 37 °C, read at 24 h, mean (standard error, n = 3)): 6.9 µg/mL; MIC ([1]; ATCC64124, read-out: Minimal inhibitory concentration (MIC), C. albicans ATCC 64124, Adhesive (1.0% denture adhesive in gel), radial diffusion, mean (standard error, n = 3)): 8 µM; MIC ([1]; ATCC64124, read-out: Minimal inhibitory concentration (MIC), C. albicans ATCC 64124, No Adhesive, radial diffusion, mean (standard error, n = 3)): 11.9 µM; MIC ([2]; 24 h, pH 7.4, read-out: Minimal inhibitory concentration (MIC), C. albicans HMV4C, Adhesive (1.0% denture adhesive in gel), radial diffusion, pH 7.4, 37 °C, read at 24 h, mean (standard error, n = 3)): 11.1 µg/mL; MIC ([2]; 24 h, pH 7.4, read-out: Minimal inhibitory concentration (MIC), C. albicans HMV4C, No Adhesive, radial diffusion, agarose in 10.0 mM sodium phosphate pH 7.4, 37 °C, read at 24 h, mean (standard error, n = 3)): 5.7 µg/mL; MIC ([2]; read-out: Minimal inhibitory concentration (MIC), C. albicans HMV4C, Adhesive (1.0% denture adhesive in gel), radial diffusion, mean (standard error, n = 3)): 19.2 µM; MIC ([2]; read-out: Minimal inhibitory concentration (MIC), C. albicans HMV4C, No Adhesive, radial diffusion, mean (standard error, n = 3)): 9.9 µM
CCCCCCCCCCCCCCC[C@@H](O)[C@@H](N)CO [dihydrosphingosine]			lost antimicrobial activity			
CC[C@H](C)[C@H](NC(=O)[C@H](CCCCN)NC(=O)[C@H](CCC(=O)O)NC(=O)[C@H](CCCCN)NC(=O)[C@H](CO)NC(=O)[C@H](CCCCN)NC(=O)[C@H](CCCNC(=N)N)NC(=O)[C@H](Cc1ccccc1)NC(=O)[C@H](Cc1ccccc1)NC(=O)[C@H](CC(=O)O)NC(=O)CNC(=O)[C@H](CC(C)C)NC(=O)[C@@H](N)CC(C)C)C(=O)NCC(=O)N[C@@H](CCCCN)C(=O)N[C@@H](CCC(=O)O)C(=O)N[C@@H](Cc1ccccc1)C(=O)N[C@@H](CCCCN)C(=O)N[C@@H](CCCNC(=N)N)C(=O)N[C@H](C(=O)N[C@H](C(=O)N[C@@H](CCC(N)=O)C(=O)N[C@@H](CCCNC(=N)N)C(=O)N[C@H](C(=O)N[C@@H](CCCCN)C(=O)N[C@@H](CC(=O)O)C(=O)N[C@@H](Cc1ccccc1)C(=O)N[C@@H](CC(C)C)C(=O)N[C@@H](CCCNC(=N)N)C(=O)N[C@@H](CC(N)=O)C(=O)N[C@@H](CC(C)C)C(=O)N[C@H](C(=O)N1CCC[C@H]1C(=O)N[C@@H](CCCNC(=N)N)C(=O)N[C@H](C(=O)N[C@@H](CCC(=O)O)C(=O)N[C@@H](CO)C(=O)O)[C@@H](C)O)C(C)C)[C@@H](C)CC)C(C)C)[C@@H](C)CC [LL37]		diminished activity		> 222.4 µM	30.4 (1.0) µM	Minimal inhibitory concentration (MIC) [1, 4]: >222.4 (0.0) µM; Minimal inhibitory concentration (MIC) [1, 5]: >222.4 (0.0) µM; Minimal inhibitory concentration (MIC) [2, 4]: >222.4 (0.0) µM
C[C@H](NC(=O)[C@H](Cc1c[nH]cn1)NC(=O)[C@H](CO)NC(=O)[C@@H](N)CC(=O)O)C(=O)N[C@@H](CCCCN)C(=O)N[C@@H](CCCNC(=N)N)C(=O)N[C@@H](Cc1c[nH]cn1)C(=O)N[C@@H](Cc1c[nH]cn1)C(=O)NCC(=O)N[C@@H](Cc1ccc(O)cc1)C(=O)N[C@@H](CCCCN)C(=O)N[C@@H](CCCNC(=N)N)C(=O)N[C@@H](CCCCN)C(=O)N[C@@H](Cc1ccccc1)C(=O)N[C@@H](Cc1c[nH]cn1)C(=O)N[C@@H](CCC(=O)O)C(=O)N[C@@H](CCCCN)C(=O)N[C@@H](Cc1c[nH]cn1)C(=O)N[C@@H](Cc1c[nH]cn1)C(=O)N[C@@H](CO)C(=O)N[C@@H](Cc1c[nH]cn1)C(=O)N[C@@H](CCCNC(=N)N)C(=O)NCC(=O)N[C@@H](Cc1ccc(O)cc1)C(=O)O [Histatin 5]		diminished activity		> 329.0 µM		
CC[C@H](C)[C@@H]1NC(=O)[C@H](CCCCN)NC(=O)[C@H]([C@@H](C)O)NC(=O)[C@H](Cc2ccccc2)NC(=O)[C@H]([C@@H](C)CC)NC(=O)[C@@H]2CCCN2C(=O)[C@@H]2CSSC[C@@H](C(=O)N[C@@H](CCCCN)C(=O)O)NC(=O)[C@@H]3CSSC[C@H](NC(=O)[C@H](CC(N)=O)NC(=O)[C@H](Cc4ccc(O)cc4)NC(=O)[C@H](Cc4c[nH]cn4)NC(=O)[C@@H](N)CC(=O)O)C(=O)N[C@@H](C(C)C)C(=O)N[C@@H](CO)C(=O)N[C@@H](CO)C(=O)NCC(=O)NCC(=O)N[C@@H](CCC(N)=O)C(=O)N[C@@H](CSSC[C@H](NC(=O)[C@H]([C@@H](C)O)NC(=O)CNC(=O)[C@H](CCC(N)=O)NC1=O)C(=O)N[C@@H](Cc1ccc(O)cc1)C(=O)N[C@@H](CCCNC(=N)N)C(=O)NCC(=O)N[C@@H](CCCCN)C(=O)N[C@@H](C)C(=O)N[C@@H](CCCCN)C(=O)N3)C(=O)N[C@@H](CC(C)C)C(=O)N[C@@H](Cc1ccc(O)cc1)C(=O)N[C@@H](CO)C(=O)N[C@@H](C)C(=O)N2 [HBD-1] (H-DHYNCVSSGGQCLYSACPIFTKIQGTCYRGKAKCCK-OH; disulfide 5-34, 12-27, 17-35 (inferred); N-terminus and C-terminus assumed)				> 254.1 µM	>254.1 (0.0) µM	Minimal inhibitory concentration (MIC) [2, 6]: > 254.1 µM
CCCCCCCCCCCCCC[C@@H](O)[C@@H](O)[C@@H](N)CO [phytosphingosine]			lost antimicrobial activity			
IP-10: recombinant human CXCL10 (Peprotech)	diminished activity	diminished activity			2.2 (0.0) µM	Minimal inhibitory concentration (MIC) [1, 7]: >1000.0 (0.0) µg/mL; Minimal inhibitory concentration (MIC) [1, 4]: >115.7 (0.0) µM; Minimal inhibitory concentration (MIC) ([1]; No Adhesive, radial diffusion, pH 7.4, 37 °C, read at 24 h, mean (standard error, n = 3)): 103.6 (3.2) µg/mL; Minimal inhibitory concentration (MIC) [1, 5]: 12.0 (0.4) µM; Minimal inhibitory concentration (MIC) [2, 7]: >200.0 (0.0) µg/mL; Minimal inhibitory concentration (MIC) [2, 4]: >23.1 (0.0) µM; Minimal inhibitory concentration (MIC) ([2]; No Adhesive, radial diffusion, agarose in 10.0 mM sodium phosphate pH 7.4, 37 °C, read at 24 h, mean (standard error, n = 3)): 18.6 (0.3) µg/mL
GIGDPVTCLKSGAICHPVFCPRRYKQIGTCGLPGTKCCKKP (disulfide 8-37, 15-30, 20-38 (inferred)) [HBD-2]	diminished activity	diminished activity				
CCCCCCCCCCCCC/C=C/[C@@H](O)[C@@H](N)CO [sphingosine]			lost antimicrobial activity			

Source: paper PMC5372986, “Diminished Antimicrobial Peptide and Antifungal Antibiotic Activities against Candida albicans in Denture Adhesive” (Antibiotics, 2017)
